Reference: PubChem BioAssay (NCI)
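Results reflect a 48-hour exposure of cells in 96-well plates to compound at five concentrations. GI50 = concentration required for 50% inhibition of growth. Definition used: TGI = concentration required for complete inhibition of growth.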

Experiments:
Test in all cases: NCI tumour cell line growth inhibition, 48 h; in the data active means GI50 below about 0.43 µM; inactive means the rest
UACC-62 melanoma = test system: UACC-62 melanoma
ACHN renal = test system: ACHN renal
EKVX NSCLC = test system: EKVX NSCLC
SNB-19 CNS = test system: SNB-19 CNS
BT-549 breast = test system: BT-549 breast
HT29 colon = test system: HT29 colon
SK-MEL-2 melanoma = test system: SK-MEL-2 melanoma
SK-MEL-5 melanoma = test system: SK-MEL-5 melanoma
SN12C renal = test system: SN12C renal
NCI-H23 lung = test system: NCI-H23 lung
HCT-15 colon = test system: HCT-15 colon
UACC-257 melanoma = test system: UACC-257 melanoma
COLO 205 colon = test system: COLO 205 colon
OVCAR-5 ovarian = test system: OVCAR-5 ovarian
HCT-116 colon = test system: HCT-116 colon
786-0 renal = test system: 786-0 renal
A549 NSCLC = test system: A549 NSCLC
SR leukemia = test system: SR leukemia
CAKI-1 renal = test system: CAKI-1 renal
HL-60(TB) leukemia = test system: HL-60(TB) leukemia
T-47D breast = test system: T-47D breast
NCI-H226 lung = test system: NCI-H226 lung
IGROV1 ovarian = test system: IGROV1 ovarian
NCI-H522 lung = test system: NCI-H522 lung
SF-295 CNS = test system: SF-295 CNS
SF-268 CNS = test system: SF-268 CNS
K-562 leukemia = test system: K-562 leukemia
SW-620 colon = test system: SW-620 colon
HOP-62 NSCLC = test system: HOP-62 NSCLC
OVCAR-4 ovarian = test system: OVCAR-4 ovarian
NCI-H460 lung = test system: NCI-H460 lung
NCI/ADR-RES ovarian = test system: NCI/ADR-RES ovarian
SNB-75 CNS = test system: SNB-75 CNS
MDA-MB-231 breast = test system: MDA-MB-231 breast
SK-MEL-28 melanoma = test system: SK-MEL-28 melanoma
TK-10 renal = test system: TK-10 renal
RXF 393 renal = test system: RXF 393 renal
HOP-92 NSCLC = test system: HOP-92 NSCLC
OVCAR-8 ovarian = test system: OVCAR-8 ovarian
LOX IMVI melanoma = test system: LOX IMVI melanoma
PC-3 prostate = test system: PC-3 prostate
MDA-MB-435 = test system: MDA-MB-435
RPMI-8226 leukemia = test system: RPMI-8226 leukemia
KM12 colon = test system: KM12 colon
OVCAR-3 ovarian = test system: OVCAR-3 ovarian
MOLT-4 leukemia = test system: MOLT-4 leukemia
UO-31 renal = test system: UO-31 renal
DU-145 prostate = test system: DU-145 prostate
U251 CNS = test system: U251 CNS
M14 melanoma = test system: M14 melanoma
HS 578T breast = test system: HS 578T breast
SK-OV-3 ovarian = test system: SK-OV-3 ovarian
HCC-2998 colon = test system: HCC-2998 colon
A498 renal = test system: A498 renal
MALME-3M melanoma = test system: MALME-3M melanoma
SF-539 CNS = test system: SF-539 CNS

CN(C)c1ccc(/C=C2\C[C@H]3[C@@H]4CCc5cc(OCCN6CCCC6)ccc5[C@H]4CC[C@]3(C)C2=O)cc1
2.45 µM: TGI (HCT-116 colon)
6.32 µM: TGI (EKVX NSCLC)
2.85 µM: TGI (COLO 205 colon)
3.11 µM: TGI (ACHN renal)
0.814 µM: TGI (HT29 colon)
2.6 µM: TGI (786-0 renal)
4.09 µM: TGI (SNB-19 CNS)
3.93 µM: TGI (SK-MEL-2 melanoma)
8.62 µM: TGI (OVCAR-5 ovarian)
> 100 µM: TGI (BT-549 breast) | TGI (NCI-H23 lung)
5.35 µM: TGI (UACC-257 melanoma)
3.22 µM: TGI (SK-MEL-5 melanoma)
2.66 µM: TGI (HCT-15 colon)
4.24 µM: TGI (UACC-62 melanoma)
2.97 µM: TGI (SN12C renal)

c1ccc2[nH]c(-c3ccc(NN=Nc4ccncc4)cc3)nc2c1
54.1 µM: TGI (EKVX NSCLC)
74.4 µM: TGI (SF-268 CNS)
38.4 µM: TGI (LOX IMVI melanoma) | TGI (RPMI-8226 leukemia)
> 100 µM: TGI (UACC-62 melanoma) | TGI (ACHN renal) | TGI (A549 NSCLC) | TGI (SR leukemia) | TGI (SNB-19 CNS) | TGI (CAKI-1 renal) | TGI (HL-60(TB) leukemia) | TGI (T-47D breast) | TGI (BT-549 breast) | TGI (NCI-H226 lung) | TGI (IGROV1 ovarian) | TGI (NCI-H522 lung) | TGI (SF-295 CNS) | TGI (SK-MEL-2 melanoma) | TGI (SK-MEL-5 melanoma) | TGI (SW-620 colon) | TGI (SN12C renal) | TGI (HOP-62 NSCLC) | TGI (OVCAR-4 ovarian) | TGI (NCI-H460 lung) | TGI (HCT-15 colon) | TGI (NCI/ADR-RES ovarian) | TGI (SNB-75 CNS) | TGI (MDA-MB-231 breast) | TGI (TK-10 renal) | TGI (RXF 393 renal) | TGI (UACC-257 melanoma) | TGI (HOP-92 NSCLC) | TGI (COLO 205 colon) | TGI (OVCAR-5 ovarian) | TGI (OVCAR-8 ovarian) | TGI (PC-3 prostate) | TGI (MDA-MB-435) | TGI (HCT-116 colon) | TGI (KM12 colon) | TGI (OVCAR-3 ovarian) | TGI (MOLT-4 leukemia) | TGI (786-0 renal) | TGI (UO-31 renal) | TGI (DU-145 prostate) | TGI (U251 CNS) | TGI (M14 melanoma) | TGI (HS 578T breast) | TGI (SK-OV-3 ovarian)
61.8 µM: TGI (K-562 leukemia)
51.6 µM: TGI (SK-MEL-28 melanoma)
inactive: GI50 (UACC-62 melanoma) 75.1 µM | GI50 (ACHN renal) 31.2 µM | GI50 (A549 NSCLC) > 100 µM | GI50 (EKVX NSCLC) 11.2 µM | GI50 (SR leukemia) 47.7 µM | GI50 (SNB-19 CNS) > 100 µM | GI50 (CAKI-1 renal) 5.2 µM | GI50 (HL-60(TB) leukemia) > 100 µM | GI50 (T-47D breast) 93 µM | GI50 (BT-549 breast) 4.39 µM | GI50 (NCI-H226 lung) > 100 µM | GI50 (IGROV1 ovarian) > 100 µM | GI50 (NCI-H522 lung) 77.6 µM | GI50 (SF-295 CNS) 16.4 µM | GI50 (SK-MEL-2 melanoma) 15.4 µM | GI50 (SK-MEL-5 melanoma) 24.1 µM | GI50 (SF-268 CNS) 4.81 µM | GI50 (K-562 leukemia) 14.6 µM | GI50 (SW-620 colon) 49.7 µM | GI50 (SN12C renal) > 100 µM | GI50 (HOP-62 NSCLC) > 100 µM | GI50 (OVCAR-4 ovarian) 39.5 µM | GI50 (NCI-H460 lung) 2.46 µM | GI50 (HCT-15 colon) 17.7 µM | GI50 (NCI/ADR-RES ovarian) > 100 µM | GI50 (SNB-75 CNS) > 100 µM | GI50 (MDA-MB-231 breast) > 100 µM | GI50 (SK-MEL-28 melanoma) 16.6 µM | GI50 (TK-10 renal) 52.5 µM | GI50 (RXF 393 renal) 58.1 µM | GI50 (UACC-257 melanoma) > 100 µM | GI50 (HOP-92 NSCLC) 91.5 µM | GI50 (COLO 205 colon) 27 µM | GI50 (OVCAR-5 ovarian) > 100 µM | GI50 (OVCAR-8 ovarian) 5.57 µM | GI50 (LOX IMVI melanoma) 6.59 µM | GI50 (PC-3 prostate) 33 µM | GI50 (MDA-MB-435) 30.7 µM | GI50 (RPMI-8226 leukemia) 6.3 µM | GI50 (HCT-116 colon) 26.3 µM | GI50 (KM12 colon) 23 µM | GI50 (OVCAR-3 ovarian) 15.1 µM | GI50 (MOLT-4 leukemia) > 100 µM | GI50 (786-0 renal) 99.9 µM | GI50 (UO-31 renal) 43.6 µM | GI50 (DU-145 prostate) 47 µM | GI50 (U251 CNS) 27.2 µM | GI50 (M14 melanoma) > 100 µM | GI50 (HS 578T breast) > 100 µM | GI50 (SK-OV-3 ovarian) > 100 µM

Cc1sc2nc(-c3ccc(Cl)c([N+](=O)[O-])c3)c(/C=N/N=C(N)N)n2c1C
1.7 µM: TGI (HOP-62 NSCLC)
3.11 µM: TGI (MDA-MB-435)
3.68 µM: TGI (MALME-3M melanoma)
2.93 µM: TGI (OVCAR-5 ovarian)
1.92 µM: TGI (786-0 renal)
2.03 µM: TGI (OVCAR-8 ovarian)
3.07 µM: TGI (BT-549 breast) | TGI (UO-31 renal)
6.59 µM: TGI (NCI/ADR-RES ovarian)
2.18 µM: TGI (SK-MEL-28 melanoma)
3.29 µM: TGI (M14 melanoma)
3.5 µM: TGI (OVCAR-3 ovarian)
2.64 µM: TGI (HCC-2998 colon)
4.76 µM: TGI (T-47D breast)
3.34 µM: TGI (NCI-H522 lung)
2.77 µM: TGI (ACHN renal)
2.99 µM: TGI (SF-539 CNS)
3.14 µM: TGI (EKVX NSCLC)
3.4 µM: TGI (SF-295 CNS)
1.31 µM: TGI (COLO 205 colon)
3.2 µM: TGI (TK-10 renal)
2.44 µM: TGI (IGROV1 ovarian) | TGI (LOX IMVI melanoma)
1.87 µM: TGI (KM12 colon)
3.06 µM: TGI (A498 renal)
2.65 µM: TGI (HCT-15 colon)
2.63 µM: TGI (HT29 colon)
3.13 µM: TGI (RXF 393 renal) | TGI (SK-OV-3 ovarian)
